Test results published in ChEMBL document CHEMBL1157539, “Thousands of chemical starting points for antimalarial lead identification” (Nature, 2010).

Each compound was assayed on Plasmodium falciparum (assay: GSK_TCMDC: Inhibition of Plasmodium falciparum 3D7 in whole erythrocytes, using parasite LDH activity as an index of growth.). Details: not given.
Format: functional, organism-based

| SMILES | XC50 [nM] |
| --- | --- |
| Cn1nc(-c2ccc(S(=O)(=O)NC3CCC(CN4CCC(c5c[nH]c6ccccc56)CC4)CC3)s2)cc1C(F)(F)F (centres undefined) | 835 |

Same assay, conditions: Plasmodium falciparum, 3D7

| SMILES | XC50 [nM] |
| --- | --- |
| CCc1cn2c3c(cc(C(=O)N[C@@H](Cc4ccccc4)[C@H](O)CNC4CCCC4)cc13)N(C)S(=O)(=O)CC2 | 46.9 |
| O=C(Nc1ccc(C(F)(F)F)cc1)c1cc(Br)cnc1NCCCn1ccnc1 | 968 |
| COc1cc2c(Nc3ccc(Br)cc3F)ncnc2cc1OCC1CCN(C)CC1 | 770 |
| CN1CCC(NCc2ccc(-c3cccc(S(=O)(=O)NCCc4ccccn4)c3)cc2)CC1 | 993 |
| CC(C)NCc1ccc(-c2ccc(NC(=O)c3cccc(C#N)c3)cc2)cc1 | 654 |
| CN1CCCN(Cc2ccc(-c3cccc(NC(=O)c4cccc(Cl)c4)c3)cc2)CC1 | 837 |
| O=C(NC1CC1)c1ccc(Cn2c(SCc3cccc(Cl)c3)nc3ccccc3c2=O)cc1 | 422 |
| CN(C)CCNC(=O)N1CCCN(c2ncnc3cc(-c4ccccc4)sc23)CC1 | 786 |
| CCC[C@@H]([C@@H](Cc1ccc(C)s1)C(=O)N[C@@H](CNC(C)=O)C(=O)Nc1nccs1)N(O)C=O | 176 |
| COc1ccc(CNCCc2cccs2)cc1-c1cccc(S(=O)(=O)NCCN2CCCC2)c1 | 877 |
| N#Cc1ccc(N/C(=N\c2ccccc2Cl)NC2CCN(Cc3ccccc3)CC2)c(O)c1 | 300 |
| O=S(=O)(NCCN1CCCC1)c1ccc(-c2ccc(CNCc3ccccc3)cc2)s1 | 849 |
| COCCNCc1cccc(C#Cc2cc3ncnc(Nc4ccc(OCc5cccc(F)c5)c(Cl)c4)c3s2)n1 | 739 |
| Cc1[nH]c(C)c(Cc2ccc(Oc3ccc(OC(F)(F)F)cc3)cc2)c(=O)c1Br | 686 |
| C=C(C)C1CC=C(CN2CCC(N3CCc4cc(NC(=O)c5cc(C)on5)ccc43)C2)CC1 (centres undefined) | 707 |
| O=C(NCCCCN1CCC(O)(c2ccc3c(c2)OCO3)CC1)c1ccc(NC(=O)c2ccc(Cl)cc2)cc1 | 1180 |
| CN(Cc1cccc(F)c1)C1CCN(c2cc(NC(=O)c3cccc(F)c3)ccn2)CC1 | 1160 |
| Cn1c(=O)c2nc(-c3ccc(Cl)cc3)nnc2n(CCCC#N)c1=O | 153 |
| O=C(/C=C/c1ccc(Cl)c(Cl)c1)NC1CCC(CN2CCC(c3nc4ccccc4n3CCCO)CC2)CC1 (centres undefined) | 577 |
| c1ccc2sc(Sc3ncnc4sccc34)nc2c1 | 734 |
| C#CCCC(=O)Nc1cccc(-c2cccc(-c3nc4cc(C(F)(F)F)ccc4[nH]3)c2)c1 | 805 |
| Oc1ccc2ccccc2c1C=NNc1nc(=Nc2ccccc2)[nH]c(=Nc2ccccc2)[nH]1 | 667 |
| FC(F)(F)c1ccc2[nH]c(-c3ccc(-c4cccc(CNCCN5CCNCC5)c4)s3)nc2c1 | 1040 |
| CCC(CN1C(=O)C(c2ccccc2)(c2ccccc2)N=C1N)c1ccccc1 (centres undefined) | 136 |
| Cc1cc(N[C@@H](CC(C)C)C(=O)NCCOc2ccccc2)nc(NCCOc2ccccc2)n1 | 1490 |

| SMILES | XC50 [nM] |
| --- | --- |
| Cc1[nH]c2ccc(O)cc2c1C1CCN(CCCCCNC(=O)/C=C/c2ccc(Cl)c(Cl)c2)CC1 | 771 |
| Cn1nc(-c2ccc(S(=O)(=O)NC3CCC(CN4CCC(c5c[nH]c6ccccc56)CC4)CC3)s2)cc1C(F)(F)F (centres undefined) | 820 |
| O=C(Nc1ccc(C(F)(F)F)cc1)Nc1ccccc1N1CCNCC1 | 500 |
| COc1ccc(Cc2cnc3nc(N)nc(N)c3c2C)cc1OC | 9.41 |
| Cc1cc(NC(=O)Nc2ccc3ncccc3c2)c2ccccc2n1 | 956 |
| Cc1cc(C(=O)CN2C(=O)NC(C)(c3cccc4ccccc34)C2=O)c(C)n1Cc1ccco1 (centres undefined) | 626 |
| NCCC(=O)Nc1ccc(-c2cnc3[nH]cc(-c4ccc(C(=O)O)cc4)c3c2)cn1 | 842 |
| CS(=O)(=O)CCNCc1cccc(-c2cc3c(Nc4ccc(OCc5cccc(F)c5)c(Cl)c4)ncnc3s2)c1 | 198 |
| Nc1nc(-c2ccccn2)nc(-n2nc(-c3cccc(C(F)(F)F)c3)cc2N)n1 | 1040 |
| CO/N=C(\C)c1ccc2c(c1)CCN(CCC1CCC(NC(=O)c3cccc(-c4noc(C)n4)c3)CC1)CC2 (centres undefined) | 244 |
| CCNc1cc(-c2cccc(OC)c2)nc(Nc2ccc(F)cc2)n1 | 1270 |
| CN1CCN(c2ccc(-c3cccc(NC(=O)c4cccc(Cl)c4)c3)nn2)CC1 | 579 |
| CC(C)Cn1cc(C2CCN(CCN3CCC(CNC(=O)c4ccc(-c5ccc(C#N)cc5)cc4)CC3)CC2)c2ccccc21 | 786 |
| O=C(Nc1cccc([N+](=O)[O-])c1)Nc1ccc(Cl)c(C(F)(F)F)c1 | 1120 |
| COc1ccc2ncc(F)c(CCN3CC(O)C(CNCc4ccc5ccccc5c4)C3)c2n1 (centres undefined) | 501 |
| COc1ccc(CNC(=O)C2Cc3ccccc3CN2Cc2ccc3ccccc3c2)cc1 (centres undefined) | 1100 |
| O=C(Nc1ccc(-c2nc3ccccc3[nH]2)cc1)c1cnc(Cl)c(Cl)c1 | 728 |
| O=C(CNC(=O)c1ccc(O)cc1)Nc1cccc(-c2cccc(-c3nc4cc(C(F)(F)F)ccc4[nH]3)c2)c1 | 1040 |
| Fc1ccc(Nc2ccnc3cc(-c4cccc(CNCCN5CCOCC5)c4)ccc23)c(Cl)c1 | 142 |
| Oc1cccc(Nc2nc(NCc3ccco3)c3ccccc3n2)c1 | 415 |
| O=C(Nc1cccc(-c2ccc(CN3CCC(O)CC3)cc2)c1)c1ccc(Cl)cc1 | 961 |
| O=C(Nc1ccc(OC2CCN(Cc3ccc(F)cc3)C2)c(Cl)c1)c1ccsc1 (centres undefined) | 538 |
| Cc1cccc2nc(-c3cccc(-c4cccc(CNCc5cnn(-c6ccccc6)n5)c4)c3)[nH]c12 | 663 |
| COc1ccc(NC(=O)Nc2ccc(-c3ccc(-c4nc5cccc(C)c5[nH]4)s3)cc2)cc1 | 175 |
| CN1CCCN(Cc2ccc(-c3ccc(NC(=O)c4ccc(C#N)cc4)cc3)cc2)CC1 | 1020 |

| SMILES | XC50 [nM] |
| --- | --- |
| COc1ccc(CCCN2C(=O)C(c3ccccc3)(c3ccccc3)N=C2N)cc1 | 1050 |
| CCN1CCN(CCCNc2c3ccc(Cl)cc3nc3ccc(O)cc23)CC1 | 566 |
| CCNc1cc(C(=O)N[C@@H](Cc2ccccc2)[C@H](O)CNC(C)(C)CSCC(C)C)cc(N2CCCC2=O)c1 | 260 |
| COc1cc2c(cc1OC)C(C)(C)CN1Cc3c(c(CO)c(OC)c(OC)c3OC)CC21 (centres undefined) | 782 |
| O=C(Nc1ccnc(N2CC3CC2CN3Cc2cccc(O)c2)c1)c1ccc(F)cc1 (centres undefined) | 1240 |
| O=C(Nc1cn(-c2ccc(OCc3cccc(F)c3)c(Cl)c2)c2ncncc12)c1ccncc1 | 171 |
| C=CCc1ccccc1OCC(O)CN(C1CCCCC1)C1CCCCC1 (centres undefined) | 814 |
| O=C(Nc1cc(Cl)cc(Cl)c1)c1cc(Cl)c(=O)n(Cc2cccc(Cl)c2)c1 | 752 |
| CC(C)c1ccc(NC(=O)Nc2ccc(CCNCCCc3ccccc3)cc2)cc1 | 761 |
| O=C(NC1CCCC1)c1ccc(N2CCC(NCc3cccc(C(F)(F)F)c3)CC2)cc1 | 1330 |
| O=C(Nc1ccc(-c2ccccc2)cc1)Nc1cccc(Cn2nc(Cl)c(N3CCNCC3)cc2=O)c1 | 369 |
| NC(=O)COc1cccc2c1CCN(CCN1CCC(NC(=O)c3ccc(-c4ccc(Cl)cc4)cc3)CC1)C2 | 841 |
| Cc1c(Oc2ccc(-n3ccnc3)cc2)ncnc1N1CCC2(CC1)CNCc1ccccc12 | 887 |
| COc1ccccc1NC(=O)c1cc(C(=O)c2cc(Cl)ccc2O)cn(-c2ccccc2OC)c1=O | 943 |
| N=C(/N=C(/NCCCCCCN/C(=N/C(=N)NCc1ccc(Cl)c(Cl)c1)N1CCCCC1)N1CCCCC1)NCc1ccc(Cl)c(Cl)c1 | 567 |
| O=C(/C=C/c1ccc(Cl)c(Cl)c1)NCCCCCN1CCCN(C(=S)Nc2ccc(Cl)cc2)CC1 | 1130 |
| CCc1ccc(CN2CCC(CN(C(=O)c3ccccc3)c3ccc(Cl)cc3)CC2)cc1 | 991 |
| CC(C)CNCc1ccc(OCc2cccc(COc3ccc(CNCC(C)C)cc3I)c2)c(I)c1 | 772 |
| CC1CCCN1Cc1cccc(-c2ccc(C(=O)NCCOc3ccccc3)s2)c1 (centres undefined) | 925 |
| Nc1cccc(CNCc2cccc(-c3ccc(-c4nc5ccccc5[nH]4)cc3)c2)c1 | 415 |
| CCC(C(C)C)n1ccc2c3c(N)nc(N)nc3ccc21 (centres undefined) | 3.2 |
| CCCCCCCCNCCCSCCCNCCCCCCCC | 1230 |
| CN1CCN(Cc2c(O)ccc3c(=O)c(Oc4ccc(C(C)(C)C)cc4)c(C(F)(F)F)oc23)CC1 | 812 |
| O=S(=O)(NCCN1CCCC1)c1ccc(-c2ccc(CNCc3ccccc3)cc2)cc1 | 775 |
| CN1CCN(Cc2cccc(-c3ccc4c(Nc5ccc(Oc6cccnc6)cc5)ccnc4c3)c2)CC1 | 192 |

| SMILES | XC50 [nM] |
| --- | --- |
| Cc1cccc(Nc2nc3nonc3nc2Nc2cccc(Cl)c2Cl)c1C | 1030 |
| COc1ccc(CN2CCC(NCc3cccc(-n4ccnc4)c3)CC2)cc1 | 629 |
| CCc1cc(OC)c(C(=O)NC2CCN(C[C@H](O)c3ccnc4ccc(OC)cc34)CC2)cc1Br | 815 |
| O=C(Nc1cccnc1)c1cc(-c2cc(Cl)ccc2O)n[nH]1 | 719 |
| O=C(NCCNc1noc(-c2sccc2Br)n1)c1ccc(Cl)cc1 | 1170 |
| Cc1ccc2sc(N(CCCn3ccnc3)C(=O)c3ccco3)nc2c1C | 966 |
| CO/C(=C\C=C\c1cc2cc(Cl)c(Cl)cc2[nH]1)C(=O)NCCCN(C)CCN(C)c1ccccc1 | 828 |
| COc1ccc(-c2cc3nc4c(c(NCCCn5ccnc5)n3n2)CCCC4)cc1 | 730 |
| C=CC(=O)Nc1ccc(Cl)cc1C(O)c1ccccc1 (centres undefined) | 182 |
| COc1ccc(OC)c2c1CC1NCC2c2c(OC)ccc(OC)c21 (centres undefined) | 971 |
| COc1ccc(CN2CCC(NCc3cccc(C(F)(F)F)c3)CC2)cc1 | 753 |
| O=C(Nc1ccccc1)N(Cc1cccc(-c2ccc(CNCc3ccc4c(c3)OCO4)cc2)c1)C1CCN(Cc2ccccc2)CC1 | 325 |
| O=C(NC1CCN(c2ccnc(Nc3ccc(F)cc3)n2)C1)c1cc2ccccc2s1 (centres undefined) | 716 |
| C=CCn1c(Sc2ccc(C#N)c([N+](=O)[O-])c2)nnc1-c1ccc(Cl)cc1 | 667 |
| CCCC(CNCc1cccc(I)c1)CNc1cc(=O)c2ccccc2[nH]1 (centres undefined) | 471 |
| CN(c1ccc2c(c1)nc(Nc1ccc(Cl)cc1)n2C)c1ccnc(Nc2ccc(CS(C)(=O)=O)cc2)n1 | 758 |
| Cc1cc(N2CCCC2)nc(Nc2ccc(NC(=O)c3ccc4c(c3)OCO4)cc2)n1 | 815 |
| Nc1nccc2ccc(Oc3ccncc3)cc12 | 481 |
| COc1ccc(Nc2nccc(-c3ccc(NC(=O)c4cc5cc(F)ccc5[nH]4)cc3)n2)cc1 | 630 |
| COc1ccc(Nc2nccc(N3CCC(NC(=O)Nc4cc(C)ccc4C)C3)n2)cc1 (centres undefined) | 901 |
| COc1ccc(C)c(Nc2ccnc(Nc3cccc(-c4nc5ccccc5[nH]4)c3)n2)c1 | 716 |
| CN1CCN(c2ccc(Nc3c(C(N)=O)cnc4cc(-c5ccoc5)ccc34)cc2)CC1 | 806 |
| COc1nc(-n2ccc(=N)cc2)nc2ccccc12 | 1060 |
